The source of these data is patent publication US8193235B2, “Compositions and methods for establishing and maintaining stem cells in an undifferentiated state” (University of Kansas, priority 2009, dated 2012).

For assay [1], the system named is E14 ES cells. The assay is described as follows: ES cell culture in the absence of LIF (undifferentiated state, marker expression). In kind it is cell-based, mouse. The conditions noted are these: mouse ES cells, without LIF. Here is the method:
(§1) E14 ES Cell Cultures. Cells were grown in ES-IMDM media (Lonza, Walkersville, Md.) in a feeder-free condition. ES-IMDM was supplemented with 15% serum, 10^5 U/100 ml of LIF (ESGRO, Millipore, Calif.) and 0.0124% monothioglycerol (MTG; Sigma Aldrich). Cells were grown for 3-5 days with change of medium every day. For inducing differentiation in monolayer culture and to determine the effect of Gö6983 in preventing differentiation, E14 cells were cultured on gelatin-coated plastics for 8 days without LIF. Details of experiments performed at clonal-density are described herein. To maintain E14 cells with Gö6983, serum supplemented ES-IMDM was used in the presence of 5 μM Gö6983 and was passed after every 3-5 days. For all assays involving elucidation of different signaling mechanism responsible for maintenance of pluripotency, cells from a ˜70% confluent ES culture plate were washed two times with 1× phosphate-buffered saline (PBS), trypsinized and plated on a 6-well tissue culture plate and treated with or without LIF or Gö6983 or different inhibitors for ˜10 hours followed by preparation of protein lysates and RNA. The PKCζ knocked-down E14 cells that were generated in this study were maintained in serum supplemented ES-IMDM on gelatin-coated plates in the absence of Gö6983 or LIF or any other inhibitor and passed after 3-5 days. For the experiments herein, cells were continuously cultured at least for 5 consecutive passages (>18 days) on gelatin-coated plates without significant differentiation.
Quantitative RT-PCR Analysis. RNA was extracted from different cell samples with TRIZOL reagent (Invitrogen). cDNA was prepared by annealing RNA (1 μg) with 250 ng of a 5:1 mixture of random and oligo(dT) primers heated at 68° C. for 10 minutes. This was followed by incubation with Moloney murine leukemia virus reverse transcriptase (50 units) (Invitrogen, Carlsbad, Calif.) combined with 10 mM DTT, RNasin (PROMEGA, Madison, Wis.), and 0.5 mM dNTPs at 42° C. for 1 hour. Reactions were diluted to a final volume of 100 μl and heat inactivated at 97° C. for 5 minutes. Twenty μl PCR reactions contained 2 μl cDNA, 10 μl SYBR Green Master Mix (Applied Biosystems, Foster City, Calif.) and corresponding primer sets. Relative expression levels were determined from a standard curve of serial dilutions of proliferating ES cell cDNA samples and were normalized to the expression of glyceraldehyde-3-phosphate dehydrogenase (GAPDH). At least three independent experiments were done for each set of data.
Immunostaining. Immunostaining of Oct4, and Nanog expression was performed using standard protocols. Briefly, ES cells were fixed in 4% paraformaldehyde/4% sucrose, permeabilized with 0.1% TRITON X 100 (Sigma). Cells were blocked by adding 1% fish gelatin (Sigma, St. Louis, Mo.) and incubated overnight at 4° C. with 200 μl of primary antibodies. Fluorescent-conjugated secondary antibodies (ALEXA FLUOR 488, and ALEXA FLUOR 568, Molecular Probes, Invitrogen) were used at 1:250 dilutions to visualize cells. Images were captured using a LEICA fluorescence microscope.

In the next assay the test system is PKC β. Details: key: X^1: PKC β1; X^2: PKC β2. The following applies: X = isoform inhibited; superscript 1 PKC β1, 2 PKC β2; cited from earlier work.
A further assay deals with c-Myc. The assay is described as follows: GSK-3β-mediated phosphorylation of c-Myc at T58. The format is cell-based, mouse. The following applies: added in Gö6983 culture condition.
The subject of a further assay is p90Rsk1 (Rsk1). The assay is described as follows: Phosphorylation of p90Rsk1. The conditions noted are these: added to Gö6983-treated cells. In kind it is cell-based, mouse. Here is the method: Western Blot Analysis. Whole cell lysates were prepared in SDS-gel loading buffer and resolved by 10% PAGE. The antibodies used for this study included β-actin Clone AC-15 from Sigma; p-STAT3 (Tyr705), p-p44/42 MAPK (tyr202/tyr204), p44/42 MAPK, GSK3β, Phospho Akt (Ser473), Akt, p-NFκβ p65 (Ser536), c-Myc, p-c-Myc (Thr58/Ser62), p-p90RSK (Thr359/Ser363), RSK1, Suz12 (D39F6), and Ezh2 (AC22) from Cell Signaling Technology; STAT3 (C-20), Oct-4 (C-10), Nanog (M-149), PKC α (C-20), PKC βI (C-16), PKC βII (C-18), PKC γ (C-19), PKC δ (C-20), PKC ζ (c-20), p-PKC ζ (Thr 410)-R, p-NFκβ p65 (ser311), and RelA (p65) from Santa Cruz Biotechnology; p-LGL1/LGL2 (S650/S654), SSEA4and H3K4Me3 from Abcam; LGL2 (M06), clone 4G2 from Abnova; β-Catenin from BD Transduction Laboratories, and H3K27Me3 and H3K9Me3 from Millipore.

For a further assay, the system named is ERK1/2. The assay is described as follows: ERK1/2 phosphorylation in ES cells. In kind it is cell-based, mouse. The conditions noted are these: combination of Gö6983 and PD0325901. Here is the method:
as §1, with “For the experiments herein, cells were continuously cultured at least for 5 consecutive passages (>18 days) on gelatin-coated plates without significant differentiation.” left out

Assay [2] deals with E14 ES cells. The experiment in a line: ES cell differentiation on collagen IV and with retinoic acid. In kind it is cell-based, mouse. The conditions noted are these: absence of LIF. From the text:
ES Cell Differentiation on Collagen-IV and With Retinoic Acid. To differentiate ES cells in monolayer culture on collagen IV, around 3×10^4 cells per well were transferred to collagen IV-coated 6-well plates (BD Biosciences, Franklin Lakes, N.J.) cultured for 5 days in ES differentiation medium containing DMEM (Invitrogen), 15% FBS (selected for endothelial differentiation, Stem Cell Technologies, Vancouver, BC), sodium pyruvate and L-glutamine with or without LIF and Gö6983, and were recovered by cell dissociation buffer (BD Biosciences, Franklin Lakes, N.J.). For culturing multiple passages with Gö6983 on collagen-IV, the recovered cells were again plated at a density of ˜3×10^4 cells per well and cultured again for 5 days. […] For RA-induced differentiation on monolayer culture, ES cells were treated with all-trans-retinoic acid (Sigma, St. Louis, Mo.) in ethanol at a concentration of 1 μM with or without LIF and Gö6983 for 6 days followed by study of expression of pluripotency markers (by immunofluorescence or western blot or RT-PCR analysis).

In another assay the test system is mESCs. The assay is described as follows: Gö6983-mediated inhibition of mESC differentiation in presence of pathway inhibitors. The format is cell-based, mouse. The conditions noted are these: added to Gö6983 culture. Here is the method:
Inhibitors. Gö6983 was purchased from three different companies (Sigma, St. Louis, Mo.; EMD Chemicals Inc.; and Tocris Biosciences) for validation. In all experiments except the concentration profile, Gö6983 was used at 5 μM final concentration. […] Rottlerin (0.1-5 μM), and RO-318425 (0.1-5 μM) were purchased from EMD Chemicals. Jak Inhibitor I (10 μM), PD0325901 (1 μM) and AKT inhibitor IX (10 μM) were from Calbiochem and CHIR99021 (3 μM) was purchased from Stemgent.
E14 ES Cell Cultures. Cells were grown in ES-IMDM media (Lonza, Walkersville, Md.) in a feeder-free condition. ES-IMDM was supplemented with 15% serum, 10^5 U/100 ml of LIF (ESGRO, Millipore, Calif.) and 0.0124% monothioglycerol (MTG; Sigma Aldrich). Cells were grown for 3-5 days with change of medium every day. For inducing differentiation in monolayer culture and to determine the effect of Gö6983 in preventing differentiation, E14 cells were cultured on gelatin-coated plastics for 8 days without LIF. Details of experiments performed at clonal-density are described herein. To maintain E14 cells with Gö6983, serum supplemented ES-IMDM was used in the presence of 5 μM Gö6983 and was passed after every 3-5 days. […]

A further assay has as its system Akt. The assay is described as follows: Akt phosphorylation in mESCs. In kind it is cell-based, mouse. The method, then:
as §1, with “For the experiments herein, cells were continuously cultured at least for 5 consecutive passages (>18 days) on gelatin-coated plates without significant differentiation.” left out

Consider `CN(C)CCCn1cc(C2=C(c3c[nH]c4ccccc34)C(=O)NC2=O)c2ccccc21` [Bisindolylmaleimide I], for which the “ES cell differentiation in the absence of LIF” value (“ES cell differentiation” below) in the assay on E14 ES cells [1] was “able to inhibit ES cell differentiation, albeit at a lower efficiency than Gö6983”. The “Isoform Specificity β” value in the assay on PKC β is reported as “X^1”.

With `Cc1c[nH]c(-c2cnc(NCCNc3ccc(C#N)cn3)nc2-c2ccc(Cl)cc2Cl)n1` [CHIR99021], the c-Myc phosphorylation entry in the assay with c-Myc is “abolished”.

In the case of `Cn1c2ccccc2c2c3c(c4c5ccccc5n(CCC#N)c4c21)CNC3=O` [Gö6976], the “ES cell differentiation” value in the assay on E14 ES cells [1] is recorded as “could not prevent differentiation”. For the same molecule, the “Isoform Specificity β” value in the assay with PKC β was “X^2”.

As to `O=C(NOC[C@H](O)CO)c1ccc(F)c(F)c1Nc1ccc(I)cc1F` [PD0325901], in the assay with p90Rsk1 (Rsk1), the Rsk1 phosphorylation result was “abolished”. In addition, the ERK1/2 phosphorylation result in the assay on ERK1/2 is recorded as “almost completely inhibited”.

Regarding `Cn1cc(C2=C(c3c4n(c5ccccc35)CCC(CN)C4)C(=O)NC2=O)c2ccccc21` (stereo not drawn) [Ro-31-8425], in the assay with E14 ES cells [1], the “ES cell differentiation” value was “could not prevent differentiation”.

For `CC(=O)c1c(O)c(C)c(O)c(Cc2c(O)c3c(c(C(=O)/C=C/c4ccccc4)c2O)OC(C)(C)C=C3)c1O` [Rottlerin], the “ES cell differentiation” value in the assay with E14 ES cells [1] was “could not prevent differentiation”.

As to `N#CC(=C(/N)Sc1ccccc1N)/C(C#N)=C(/N)Sc1ccccc1N` [U0216], the “differentiation of ES cells on collagen IV” value in the assay on E14 ES cells [2] is reported as “failed to block differentiation”.

On to Jak-Inhibitor-I, for which the “effect of added inhibitor on Gö6983-mediated inhibition of mESC differentiation / maintenance of self-renewal” value in the assay with mESCs is given as “ineffective”.

As for “LIF: cytokine leukemia inhibitory factor, activates STAT3”, the Akt phosphorylation result in the assay on Akt is recorded as “induced”.
